Data taken from US11629174B2, “Cryptic metabolites and method for activating silent biosynthetic gene clusters in actinomycete bacteria” (The Trustees of Princeton University, priority 2017, dated 2023).

Assays:
S. avermitilis = experiment: Growth inhibition of S. avermitilis by elicitor; type: cell-based; settings: dose-response series in 2.5 ug/mL steps
Gene cluster 3648 = experiment: HiTES in S. avermitilis, gene cluster 3648; type: cell-based; settings: FIGS. 16 and 17
SAV3643 and SAV3665 = experiment: RT-qPCR of SAV3643 and SAV3665 in cluster 3648; type: cell-based, S. avermitilis; settings: 5 ug/mL, relative to untreated samples
Gene cluster 4286 = experiment: HiTES in S. erythraea, gene cluster 4286; type: cell-based; settings: FIG. 13
Gene cluster 2631 = experiment: HiTES in S. erythraea, gene cluster 2631; type: cell-based; settings: FIG. 10
Gene cluster 4477 = experiment: HiTES in S. erythraea, gene cluster 4477; type: cell-based; settings: FIG. 14
Gene cluster 2875 = experiment: HiTES in S. erythraea, gene cluster 2875; type: cell-based; settings: FIG. 11
Gene cluster 4143 = experiment: HiTES in S. erythraea, gene cluster 4143; type: cell-based; settings: FIG. 12
S. albus = experiment: Anti-bacterial effect of elicitor on the producing strain; type: cell-based, Streptomyces albus J1074; settings: at high concentrations
surA and surC = experiment: RT-qPCR of surA and surC transcripts in wt S. albus; type: cell-based, Streptomyces albus J1074
Description: In the example above, the effects of these putative elicitors on the sur cluster were validated by performing a RT-qPCR with wt S. albus. Upon exposure of S. albus to each elicitor or DMSO (control), total RNA was be isolated, converted to cDNA and the surA and surC transcripts quantified by qPCR. […] To further verify the effect of 1 and 2, a dose-response assay was carried out. With both elicitors, a concentration-dependent induction of sur was observed, yielding optimal upregulation at a final concentration of ˜23 μM (etoposide) and −30 μM (ivermectin) (FIG. 4B). These concentrations induced a ˜10-fold (etoposide) and 4.5-fold (ivermectin) upregulation of surC.
All operations involving RNA utilized a dedicated RNase-free work area. To commence the experiment, seed cultures of wt S. albus J1074 were prepared by inoculating 3 ml of TSBY medium (3% (w/v) tryptic soy broth and 0.5% yeast extract) in a sterile 14 ml bacterial culture tube with freshly-prepared spores (˜10^7). The culture was incubated at 30° C. and 250 rpm in an Ecotron Shaker (ATR). After 48 hours cultivation, the cells were collected by centrifugation and subsequently diluted to a final concentration of 0.05% (w/v) in 250 ml Erlenmeyer flask containing 50 ml of R4 medium. Desired elicitors were added to final concentrations indicated in the figures (typically 1-100 μM), and the cultures were incubated at 30° C. and 250 rpm. After 48 h, 1 ml was removed from each sample and transferred to a 1.5 ml RNase-free Eppendorf tube (Ambion). Each sample was centrifuged (16,000 g, 3 min) to collect the cells, the supernatant discarded, the cells flash-frozen in liquid N2, and stored at −80° C.
RNA isolation was carried out using the Qiagen RNeasy kit following the manufacturer's instructions without modifications. Upon isolation, contaminating DNA was removed using the DNA-free kit (Ambion) according to manufacturer's instructions. Gel electrophoreses subsequently confirmed RNA integrity (FIG. S2). Finally, total RNA was converted into cDNA via the PrimeScript™ RT reagent Kit (Takara) using random hexamers as primers and 500 ng of each RNA sample as template.
Three genes (surA, surC and surR) were chosen for quantification by RT-qPCR. The primers were designed using primer-3-plus software available online. The primers were carefully chosen to give an amplicon length of 130-160 bp and a melting temperature of 60° C., though this was later optimized (see below and Table 2). The primers were chosen to vary in length between 18-22 bp, and, if possible, to contain a single G/C clamp at the 3′ end. To ensure optimal qPCR parameters, the genomic DNA of S. albus J1074 was isolated using the Wizard genomic DNA purification kit (Promega), and each amplicon was subsequently amplified using standard PCR conditions with a high-fidelity, proof-reading Q5 DNA polymerase (NEB). The PCR reactions were then separated on a 1.2% agarose gel, the amplicon excised, and gel-extracted with the Gel Extraction kit (Qiagen). The extracted DNA was used to optimize qPCR conditions. Using the amplicon template, the primer concentrations were first varied followed by the annealing/extension temperatures, which ranged from 58-68° C. in eight steps. The combination that gave the lowest quantification cycle (Cq) was used in the experiments (Table 2). The Cq was obtained with an automatic baseline determined by the CFX Manager Software (Bio-Rad). As positive controls, these standards were included in every plate that contained the experimental samples, along with no-DNA controls, in duplicates.
qPCR analysis was performed on a CFX96 Real-Time PCR Detection System (Bio-Rad) consisting of a C1000 Thermal Cycler and a CFX96 Real-Time System. The reaction was carried out in hard-shell, clear 96-well qPCR plates (Bio-Rad) and utilized the iTaq Universal SYBR Green Supermix (Bio-Rad). […]

sur cluster = experiment: High-throughput elicitor screen (HiTES), eGFPx3 reporter strains of the sur cluster; type: cell-based, Streptomyces albus J1074; settings: attB::Psur-eGFPx3 and surE::eGFPx3, ~33 μM, 60 h, hit threshold 2.5-fold eGFP fluorescence
Description: These next four steps are seen be referring to the previously described example. In the previously described example, HiTES was carried out using the two constructs seen in FIGS. 2B and 2C with a ˜500-member natural products library. Each S. albus construct was grown in a 96-well format, supplemented with the compound library, and the effect of each compound on the silent BGC determined using eGFP-derived fluorescence. Interference from naturally fluorescent compounds in the library was eliminated by subtracting the […], immediately after addition of the library members.
Referring to FIGS. 3A and 3B, results for both genetic constructs are shown. These graphs show relative expression of a neutral site reporter, attB::Psur-eGFPx3 (FIG. 3A) or targeted sur reporter, surE::eGFPx3 (FIG. 3B) as a function of exogenously-supplied small molecules. Each bar represents the level of expression of sur in the presence of a single candidate elicitor. Plus signs denote the positive control, attB::PermE-eGFPx3. Minus signs denote the negative controls, attB::Psur-eGFPx3 (3A) or surE::eGFPx3 (3B) in the absence of any metabolites. The expression has been normalized to the positive control.
In this example, the threshold amount was a 2.5 fold induction of eGFP-derived fluorescence emission. Thus, hits were considered those that gave at least a 2.5-fold induction of eGFP-derived fluorescence emission. However, in other embodiments, hits may be those giving at least a 2 fold induction, more preferably at least a 3 fold induction, and more preferably at least a 4 fold induction.
Seed cultures for the reporter strains sur::eGFPx3, attB::Psur-eGFPx3, negative control wild-type, and positive control attB::PermE-eGFPx3 inoculated by transferring fresh spores (˜10^7) into 20 mL of YEME medium (per L: 3% (w/v) yeast extract, 5% peptone, 3% malt extract, 1% glucose and 10.7% sucrose, and 5 mM MgCl2.6H2O) in a 125 mL Erlenmeyer flask equipped with stain-less steel springs. The cultures were grown at 30° C. and 250 rpm for 3 days. Mycelia from each of the four cultures were collected by centrifugation (10 min, 3000 g, RT) and diluted into 150 mL of R4 medium to give a final concentration of 0.05% (w/v). R4 medium consisted of (per L) 0.5% (w/v) glucose, 0.1% yeast extract, 0.5% MgCl2.6H2O, 0.2% CaCl2.2H2O, 0.15% proline, 0.118% valine, 0.28% TES, 50 mg/L casamino acid, 100 mg/L K2SO4, and 1× trace element solution, which contains 40 mg/L ZnCl2, 200 mg/L FeCl3.6H2O, 10 mg/L CuCl2.2H2O, 10 mg/L MnCl2.4H2O, 10 mg/L Na2B4O7.10H2O, and 10 mg/L (NH4)6Mo7O24.4H2O).
Subsequently, the two reporter strains (sur::eGFPx3 and attB::Psur-eGFPx3) were each dispensed into 5× sterile, clear-bottom 96-well plates (150 μL per well) using a MultiFlo Microplate Dispenser (BioTek). A separate sterile 96-well separate plate was prepared for positive and negative controls; it contained the negative control (wt S. albus J1074) in columns 1-3, sur::eGFPx3 in columns 4-6, attB::Psur-eGFPx3 in columns 7-9, and the positive control attB::PermE-eGFPx3 in columns 10-12 of the plate. No elicitors were added to the control plates. […] Upon additional of the compound library, t=0 fluorescence reads were recorded on a Synergy H1MF plate reader (BioTek) using Aex=485 nm and Aem=505-650 nm in 5 nm steps. […]

CN[C@@H]1[C@H](O)[C@H](NC)[C@H]2O[C@@]3(O)C(=O)C[C@@H](C)O[C@H]3O[C@@H]2[C@H]1O [Spectinomycin]
concentration that inhibited growth (S. avermitilis): greater than 7.5 ug/mL
elicitor of gene cluster 3648 (ranking) (Gene cluster 3648): top four elicitors
upregulation of SAV3643 and SAV3665 (SAV3643 and SAV3665): 40-50 fold

CC1(C)CCC2=C(O1)c1ccccc1C(=O)C2=O [beta-Lapachone]
elicitor of gene cluster 4286 (ranking) (Gene cluster 4286): top three elicitors
elicitor of gene cluster 2631 (ranking) (Gene cluster 2631): top three elicitors
elicitor of gene cluster 4477 (ranking) (Gene cluster 4477): top three elicitors
elicitor of gene cluster 2875 (ranking) (Gene cluster 2875): top two elicitors
elicitor of gene cluster 4143 (ranking) (Gene cluster 4143): top three elicitors

COc1cc([C@@H]2c3cc4c(cc3[C@@H](O[C@@H]3O[C@@H]5CO[C@@H](C)O[C@H]5[C@H](O)[C@H]3O)[C@H]3COC(=O)[C@H]23)OCO4)cc(OC)c1O [etoposide]
anti-bacterial effect on S. albus (S. albus): had anti-bacterial effects on S. albus
upregulation of surC (surA and surC; at the optimal elicitor concentration, vs DMSO): ~10 fold
final concentration yielding optimal upregulation of sur (surA and surC; dose-response, RT-qPCR): ~23 µM
induction of surA and surC (surA and surC; mRNA vs DMSO control, wt S. albus): 3 fold
induction of the sur cluster in both reporter strains (hit ranking) (sur cluster): best hits
